According to PMC6934184, “Selective DNA-PKcs inhibition extends the therapeutic index of localized radiotherapy and chemotherapy” (The Journal of Clinical Investigation, 2019):

Columns and labels:
MCF7 cells = test: clonogenic survival with IR; assay type: cell-based, Human; settings: 1 μM
Protocol: Cell line γH2AX and 53BP1 foci immunofluorescence and quantitation
Cells grown on coverslips or in 96-well plates were treated with 1 or 5 µM NU5455 or DMSO 1 hour prior to irradiation (0, 2.5 or 10 Gy) using an RS 320 X-ray Research System (Gulmay Medical). At set timepoints (15 or 30 minutes, or 1, 4, 5, 6, or 24 hours post-irradiation), cells were washed and fixed in methanol or 3% paraformaldehyde (PFA). […] In A549 and Calu-6, cells were Hoechst stained (5 µg/ml), and the average numbers of γH2AX and 53BP1 foci per cell were quantified from 400 nuclei per sample using an In Cell analyzer 1000 (GE Healthcare). For MCF7 cells, coverslips were mounted using Vectashield mounting medium with DAPI (Vector Labs) and imaged using a Leica TCS SPE confocal fluorescence microscope. Total fluorescence intensity was determined using ImagePro Plus 5.0 software (Media Cybernetics). […]
Cells were washed in phosphate-buffered saline (PBS), trypsinized and counted. […] Colonies were fixed using Carnoys fixture (75% v/v methanol, 25% v/v acetic acid, Fisher), stained with crystal violet (0.4% w/v in water), and counted using a ColCount automated colony counter (Oxford Optronics). Cell survival was calculated as a percentage of the untreated control. […]

Huh7 = test: clonogenic survival with doxorubicin; assay type: cell-based, human; settings: NU5455 1 μM, 24 hours

SMILES: CN(C(=O)CN1CCOCC1)c1ccc2sc3c(-c4cccc5c(=O)cc(N6CC7CCC(C6)O7)oc45)cccc3c2c1 [NU5455]
- radio-enhancement (LD80) (MCF7 cells; 24-hour treatment after IR): 2.4 fold
- radio-enhancement (LD80) (MCF7 cells; 1 hour of treatment after IR): 1.2 fold
- Fold potentiation of doxorubicin (LD80, SER80) (Huh7): 3.5 fold
